In PMC3494461 (Journal of the American Chemical Society, 2012):

Assays:
DXP synthase [1] = molecular target: T1, DXP synthase (Escherichia coli, UniProt P77488); assay: CD titration at […] nm; assay type: binding
T1 sequence (P77488 2-620): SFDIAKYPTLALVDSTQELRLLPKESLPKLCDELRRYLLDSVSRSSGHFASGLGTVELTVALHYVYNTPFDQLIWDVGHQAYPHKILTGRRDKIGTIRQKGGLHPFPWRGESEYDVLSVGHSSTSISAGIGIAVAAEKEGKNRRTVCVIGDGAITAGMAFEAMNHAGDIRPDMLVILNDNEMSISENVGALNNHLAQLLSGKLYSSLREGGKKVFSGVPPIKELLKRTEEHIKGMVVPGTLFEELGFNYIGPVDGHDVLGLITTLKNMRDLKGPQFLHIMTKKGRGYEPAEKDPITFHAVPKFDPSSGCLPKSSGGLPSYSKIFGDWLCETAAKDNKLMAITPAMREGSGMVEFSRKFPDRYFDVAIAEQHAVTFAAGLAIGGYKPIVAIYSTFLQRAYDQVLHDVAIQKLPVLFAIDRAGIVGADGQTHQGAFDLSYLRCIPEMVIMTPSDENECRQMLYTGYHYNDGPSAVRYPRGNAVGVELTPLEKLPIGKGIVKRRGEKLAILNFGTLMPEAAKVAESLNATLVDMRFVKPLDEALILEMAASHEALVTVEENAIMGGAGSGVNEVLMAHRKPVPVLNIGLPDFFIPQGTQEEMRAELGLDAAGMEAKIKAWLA

DXP synthase [2] = molecular target: T1, DXP synthase; assay: steady-state DXP formation, Michaelis-Menten plot; assay type: biochemical; details: D-GAP supplied as D,L-GAP; with pyruvate
DXP synthase [3] = molecular target: T1, DXP synthase; assay: near-UV CD of enzyme-bound ThDP; assay type: binding; details: AP tautomer dominant at pH 7.98

Compound `CC(=O)C(=O)O` [pyruvate] has a Kd (DXP synthase [1]) of ~90 µM.

With `O=C[C@H](O)COP(=O)(O)O` [D-GAP] the Km (DXP synthase [2]) was “Michaelis-Menten plot to determine the Km for D-GAP”.

In the case of `Cc1ncc(C[n+]2csc(CCOP(=O)(O)OP(=O)(O)O)c2C)c(N)n1` [ThDP], the “near-UV CD of enzyme-bound ThDP (negative band at 320 nm)” value (DXP synthase [3]) is reported as “suggesting the preponderance of the AP tautomer of ThDP bound to the enzyme”.
